Test results published in article doi:10.1101/2020.06.11.145995v1 (biorxiv, 2020).

Columns and labels:
Assay in all cases: biochemical
[1] = target: EGFR(L858R,T790M) (Homo sapiens, UniProt P00533, L858R/T790M); conditions: read-out: CPT-1-70-1 (1uM) % control
[2] = target: PKN2 (Homo sapiens, UniProt Q16513); conditions: read-out: CPT-1-70-1 (1μM) % control
[3] = target: PKAC-alpha (Homo sapiens, UniProt P17612); conditions: read-out: CPT-1-70-1 (1μM) % control
[4] = target: KIT(V559D,T670I) (Homo sapiens, UniProt P10721, T670I/V559D); conditions: read-out: CPT-1-70-1 (1uM) % control
Sequence of KIT(V559D,T670I) (P10721 whole entry V559D/T670I): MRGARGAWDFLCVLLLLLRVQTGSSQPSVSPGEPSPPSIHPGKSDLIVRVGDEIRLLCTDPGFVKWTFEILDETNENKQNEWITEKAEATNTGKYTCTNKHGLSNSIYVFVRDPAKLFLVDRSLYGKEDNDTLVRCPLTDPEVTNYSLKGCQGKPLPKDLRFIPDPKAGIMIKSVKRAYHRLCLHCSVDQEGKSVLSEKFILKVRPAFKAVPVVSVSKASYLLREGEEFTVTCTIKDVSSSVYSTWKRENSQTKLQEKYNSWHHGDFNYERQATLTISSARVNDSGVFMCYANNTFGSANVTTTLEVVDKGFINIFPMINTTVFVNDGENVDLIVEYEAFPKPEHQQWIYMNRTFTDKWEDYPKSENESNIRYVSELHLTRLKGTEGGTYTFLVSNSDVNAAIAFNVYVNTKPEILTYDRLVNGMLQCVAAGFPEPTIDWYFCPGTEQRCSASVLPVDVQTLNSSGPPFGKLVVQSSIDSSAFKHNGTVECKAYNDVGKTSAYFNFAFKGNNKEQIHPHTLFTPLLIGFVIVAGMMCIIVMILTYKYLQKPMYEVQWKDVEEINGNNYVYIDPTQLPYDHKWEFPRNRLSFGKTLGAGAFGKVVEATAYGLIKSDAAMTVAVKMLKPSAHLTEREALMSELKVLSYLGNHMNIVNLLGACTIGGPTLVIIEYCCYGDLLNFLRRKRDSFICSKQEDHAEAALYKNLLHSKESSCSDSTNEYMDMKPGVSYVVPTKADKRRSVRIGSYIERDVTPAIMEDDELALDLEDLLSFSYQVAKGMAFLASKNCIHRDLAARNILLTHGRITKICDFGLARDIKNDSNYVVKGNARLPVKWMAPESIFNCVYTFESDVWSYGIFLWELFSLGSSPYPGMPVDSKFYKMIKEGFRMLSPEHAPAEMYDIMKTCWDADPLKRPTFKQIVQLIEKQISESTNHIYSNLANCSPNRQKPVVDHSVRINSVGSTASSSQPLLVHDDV

Sequence of EGFR(L858R,T790M) (P00533 whole entry T790M/L858R): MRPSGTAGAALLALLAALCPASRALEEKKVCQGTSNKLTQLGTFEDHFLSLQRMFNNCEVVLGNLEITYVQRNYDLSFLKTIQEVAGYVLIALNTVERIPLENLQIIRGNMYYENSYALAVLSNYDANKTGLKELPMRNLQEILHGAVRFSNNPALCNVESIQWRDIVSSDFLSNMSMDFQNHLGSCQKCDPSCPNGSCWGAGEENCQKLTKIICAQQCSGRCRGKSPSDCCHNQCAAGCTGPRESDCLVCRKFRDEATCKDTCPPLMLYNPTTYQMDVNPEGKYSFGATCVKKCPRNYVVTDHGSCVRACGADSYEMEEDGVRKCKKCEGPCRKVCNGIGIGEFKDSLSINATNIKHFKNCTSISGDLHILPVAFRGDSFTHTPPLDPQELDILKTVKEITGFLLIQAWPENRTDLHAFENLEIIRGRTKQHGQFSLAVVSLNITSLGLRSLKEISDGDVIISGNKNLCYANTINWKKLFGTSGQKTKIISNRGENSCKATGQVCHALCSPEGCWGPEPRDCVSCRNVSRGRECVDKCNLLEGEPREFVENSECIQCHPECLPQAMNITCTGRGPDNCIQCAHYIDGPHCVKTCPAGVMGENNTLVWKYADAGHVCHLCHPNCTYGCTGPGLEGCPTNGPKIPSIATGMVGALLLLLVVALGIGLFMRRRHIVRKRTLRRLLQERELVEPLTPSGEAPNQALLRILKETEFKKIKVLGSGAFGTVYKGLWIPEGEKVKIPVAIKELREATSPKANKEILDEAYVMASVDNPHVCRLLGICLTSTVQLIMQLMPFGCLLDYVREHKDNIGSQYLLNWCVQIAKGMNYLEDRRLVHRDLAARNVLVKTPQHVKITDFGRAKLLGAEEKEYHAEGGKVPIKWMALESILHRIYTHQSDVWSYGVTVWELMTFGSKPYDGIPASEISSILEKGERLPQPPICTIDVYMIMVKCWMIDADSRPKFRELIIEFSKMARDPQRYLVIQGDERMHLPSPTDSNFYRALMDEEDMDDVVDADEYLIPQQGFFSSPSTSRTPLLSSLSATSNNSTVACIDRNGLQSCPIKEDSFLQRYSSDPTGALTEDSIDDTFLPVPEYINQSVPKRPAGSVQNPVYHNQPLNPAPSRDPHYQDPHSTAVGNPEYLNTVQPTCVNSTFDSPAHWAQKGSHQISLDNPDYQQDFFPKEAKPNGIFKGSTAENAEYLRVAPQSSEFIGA
Sequence of PKN2 (Q16513 whole entry): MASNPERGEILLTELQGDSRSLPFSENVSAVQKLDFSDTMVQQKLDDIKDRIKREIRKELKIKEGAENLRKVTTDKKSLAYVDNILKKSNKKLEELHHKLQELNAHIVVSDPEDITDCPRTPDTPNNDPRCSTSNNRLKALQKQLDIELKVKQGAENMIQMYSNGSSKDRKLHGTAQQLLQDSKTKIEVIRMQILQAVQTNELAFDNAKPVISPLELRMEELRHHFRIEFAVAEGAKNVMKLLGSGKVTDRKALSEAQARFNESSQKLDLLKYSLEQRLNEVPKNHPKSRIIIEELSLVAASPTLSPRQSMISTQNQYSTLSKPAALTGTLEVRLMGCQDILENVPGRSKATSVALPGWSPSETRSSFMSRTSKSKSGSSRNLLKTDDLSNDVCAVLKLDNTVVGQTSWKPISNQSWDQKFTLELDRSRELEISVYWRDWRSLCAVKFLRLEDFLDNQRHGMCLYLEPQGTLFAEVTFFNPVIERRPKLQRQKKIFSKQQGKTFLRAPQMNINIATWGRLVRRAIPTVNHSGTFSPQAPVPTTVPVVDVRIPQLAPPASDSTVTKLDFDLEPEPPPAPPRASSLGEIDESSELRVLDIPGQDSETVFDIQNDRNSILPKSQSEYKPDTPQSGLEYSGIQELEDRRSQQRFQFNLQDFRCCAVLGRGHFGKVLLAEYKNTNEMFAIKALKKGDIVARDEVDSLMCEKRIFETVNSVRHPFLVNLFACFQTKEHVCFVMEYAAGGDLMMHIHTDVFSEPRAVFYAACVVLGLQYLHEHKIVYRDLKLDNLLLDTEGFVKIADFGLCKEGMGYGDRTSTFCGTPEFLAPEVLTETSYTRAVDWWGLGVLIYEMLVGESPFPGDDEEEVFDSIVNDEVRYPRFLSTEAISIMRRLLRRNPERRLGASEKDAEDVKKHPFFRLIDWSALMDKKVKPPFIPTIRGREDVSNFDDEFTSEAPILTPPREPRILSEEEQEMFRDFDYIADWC

CN1CCN(c2ccc(Nc3nc(Oc4ccc(NC(=O)CCl)cc4)c4cc[nH]c4n3)cc2)CC1 [CPT1-70-1]
remaining activity at 1 µM [1]: 0.35%
remaining activity at 1 µM [2]: 100%
remaining activity at 1 µM [3]: 69%
remaining activity at 1 µM [4]: 28%
